According to the COVID Moonshot data (paper PMC11187573), “Identification of SARS-CoV-2 Mpro inhibitors through deep reinforcement learning for de novo drug design and computational chemistry approaches” (RSC Medicinal Chemistry, 2024):

Tests used:
[1] = molecular target: SARS-CoV-2 Main Protease (SARS-CoV-2) (UniProt P0DTD1)
[2] = molecular target: SARS-CoV-2 Main Protease (SARS-CoV-2) (UniProt P0DTD1); remark: listed apart in the source

Compound	inhibition ([1]; 20.0 µM) [%]	inhibition ([1]; 50.0 µM) [%]	relative solubility at 20 uM	relative solubility at 100 uM	inhibition ([2]; 20.0 µM) [%]	inhibition ([2]; 50.0 µM) [%]	IC50 [2] [µM]	IC50 [1] [µM]
C=CC(=O)N(c1ccc(C(C)(C)C)cc1)C(C(=O)NC(C)(C)C)c1cncc(OC)c1C (centres undefined)	8.6	28.6	0.99	0.95	8.1	39	–	–
Cc1ccncc1NC(=O)Cc1ccccc1	8.19	19.5	1	1	-0.63	16.1	–	–
C=CC(=O)N(C(C(=O)NC(C)(C)C)c1cccnc1)C1CC12CC(C)(C)C2 (centres undefined)	13	15.5	1	0.99	–	3.54	–	–
Cc1cc(C)c(C)c(S(=O)(=O)N2CCN(C(=O)c3cc(=O)[nH]c4ccccc34)CC2)c1C	84.4	92.9	0.75	0.65	81.7	88.1	3.75	–
Cc1nc(CCn2c(C3CCC(=O)N3)nnc2N2CCOC(C)(C)C2)n[nH]1 (centres undefined)	-0.233	2.23	1	1	–	4.69	–	–
C=CC(=O)N(c1ccc(C2(C)CC2)cc1)C(C(=O)Nc1ccc(OC)cc1C)c1cccnc1 (centres undefined)	–	6.08	1	0.52	0	0	–	–
C=CC(=O)N(c1ccc2c(ccn2C)c1)C(C(=O)NC(C)(C)C)c1cccnc1 (centres undefined)	-17.6	-18	1.01	1	0	–	–	–
C=CC(=O)N(c1ccc(C(C)(C)C)cc1)C(C(=O)NC(C)(C)C)c1cnccc1C (centres undefined)	-14	-12.5	0.99	1	0	0	–	–
O=C(Nc1cccc(C(=O)N2CCSCC2)c1)C(F)Cl (centres undefined)	-13.8	-16.9	1	1	0	0	–	–
CCC(=O)O[C@@H](OP(=O)(CCCCc1ccccc1)CC(=O)N1C[C@H](C2CCCCC2)C[C@H]1C(=O)O)C(C)C (stereo in doubt)	4.91	-0.253	1	0.92	3.17	–	–	–
C=CC(=O)N(c1ccc(C(C)(C)C)cc1)C(C(=O)Nc1ccccc1OC)c1cccnc1 (centres undefined)	26.3	44.2	0.97	0.95	0	25.4	–	–
CS(=O)(=O)N(CCc1ccccc1)CC1CCN(C(=O)CCl)CC1	23.9	26.1	0.96	0.89	–	73.3	–	–
O=C(Cc1cccnc1)Nc1cc(Cl)ccc1O	-1.54	23.3	1.01	0.98	–	6.62	–	–
CC1CCCC(OCc2cccc(NC(=O)NC(C)c3ccn[nH]3)c2)C1 (centres undefined)	–	-40.1	1	0.85	0	0	–	–
Cc1ccncc1NC(=O)C12CCC(CO1)C2 (centres undefined)	-5.84	9.66	1.01	1	–	0	–	–
N#Cc1ccc(CNC(=O)Cc2c[nH]c3ncccc23)cc1	2.44	1.71	1	0.99	1.12	–	–	–
O=C(CCl)Nc1nc2c(S(=O)(=O)NCCc3ccccc3)cccc2s1	58	74.5	0.89	0.66	–	80.3	8.55	13.9
O=C(Cc1cccnc1)NCc1ccccc1	1.31	7.29	1	1	–	13	–	–
NS(=O)(=O)c1ccc(N2CCC([C@@H]3CCCO3)CC2)cc1 (stereo in doubt)	–	-16	0.99	1	35	52.2	–	–
N#Cc1cccc(NC(=O)Nc2cccnc2)c1	6.21	10.3	1	1	0	–	–	–
CS(=O)(=O)c1ncc(Cl)c(C(=O)Nc2ccccc2Cc2ccccc2)n1	96.3	94.7	0.96	0.79	–	100	0.826	–
O=C(NCCNc1cccnn1)c1ccccc1NS(=O)(=O)c1cc(F)ccc1F	–	7.83	1	1	0	12.1	–	–
C=CC(=O)N(c1ccc(N(C)C)c(C)c1)C(C(=O)Nc1ccc(Cl)cc1)c1cccnc1 (centres undefined)	4.26	12.1	0.88	0.78	0	–	–	–
CCCSCC(=O)C(C#N)C(=O)Nc1ccccc1F (centres undefined)	–	-9.47	1	1	0.68	2.12	–	–
COc1ccnc(NC(=O)Cc2ccc3ccccc3c2)c1	3.47	6.09	0.95	0.91	0	17.1	–	–
Cc1ccncc1NC(=O)Cc1cccc(S(N)(=O)=O)c1	11.1	6.23	0.99	0.99	–	11.5	–	–
Cc1ccnc(C)c1NC(=O)C1CC2CC2C1 (centres undefined)	10.2	15.6	1	1	–	0	–	–
Cc1ccncc1NC(=O)Cc1cccc(C#N)c1	33.6	58.3	1	1.01	20.5	52.7	43.8	–

Compound	inhibition ([1]; 20.0 µM) [%]	inhibition ([1]; 50.0 µM) [%]	relative solubility at 20 uM	relative solubility at 100 uM	inhibition ([2]; 20.0 µM) [%]	inhibition ([2]; 50.0 µM) [%]	IC50 [2] [µM]	IC50 [1] [µM]
O=C(Cn1cccn1)N1CCN(S(=O)(=O)c2cccc(F)c2)CC1	-11.9	1	1	1	0	–	–	–
O=C(C1CCN(c2ccncc2)CC1)N1CCOCC1	–	-22.6	1	1	0	0	–	–
C=CC(=O)N(c1ccc(C(C)C)nc1)C(C(=O)NC(C)(C)C)c1cccnc1 (centres undefined)	11.7	11.4	1	0.99	0	–	–	–
O=C(c1cc(=O)[nH]c2ccccc12)N1CCN(c2ccccc2)CC1	–	54.1	1	1	66.6	78.8	10.4	–
Cc1cccc(C)c1OCC(=O)NCCc1ccccc1	1.78	7.25	1	0.98	0	0	–	–
C=CC(=O)N(c1ccc(C(C)(C)C)cc1)C(C(=O)NCCCOC)c1cccnc1 (centres undefined)	3.35	19.4	0.99	0.98	12.2	39.5	–	–
Cc1ccncc1NC(=O)C(C)c1cccc(C#N)c1 (centres undefined)	35.4	61.4	1	1	21	58.4	45.3	–
O=C(NC1CCCCC1NC(=O)c1ccncc1)c1ccccc1 (centres undefined)	–	-22.4	1	1	0	0	–	–
Cc1coc(NC(=O)Nc2cccnc2)n1	2.91	8.86	1	1	2.76	8.52	–	–
O=C(Nc1nncn1C1CC1)[C@@H]1CCOc2ccc(Cl)cc21 (stereo in doubt)	-7.38	19.5	0.99	0.99	–	-10.4	–	–
C=CC(=O)N(c1ccc(C(C)OC)cc1)C(C(=O)Nc1ccccc1Br)c1cccnc1 (centres undefined)	3.04	9.73	0.89	0.84	0	–	–	–
Cn1cncc1CNC(=O)Nc1cccc(OCC(F)F)n1	–	36.2	1	1	0	28.4	–	–
Cc1ccncc1NC(=O)C(C)Cc1ccccc1 (centres undefined)	-54.9	-128	1	1	–	0	–	–
C=CC(=O)N(c1ccc(C(C)(C)C)cc1)C(C(=O)NC1CCC1)c1cccnc1 (centres undefined)	6.16	12	1	1	0	51.9	–	–
C=CC(=O)N(c1ccc(C(C)(C)C)cc1)C(C(=O)NC1CCOCC1)c1cccnc1 (centres undefined)	9.01	0.668	0.99	1	0.841	31.1	–	–
Cc1ccnc2[nH]c(CC3CCN(C(=O)CCl)CC3)nc12	5.18	18.1	1	1	–	100	29.7	–
C=CC(=O)N(c1ccc2ncsc2c1)C(C(=O)Nc1ccc(Br)cc1)c1cccnc1 (centres undefined)	17.4	34.9	0.75	0.64	3.05	–	–	–
COc1cccc(NC(=O)Nc2cccc(C#N)c2)c1	5.11	9.79	0.96	0.94	0	2.48	–	–
C=CC(=O)NCc1ccc(C(C)NC(=O)OC(C)(C)C)cc1 (centres undefined)	–	6.84	1	1.01	0	0	–	–
C=CC(=O)N(c1cc(C(C)(C)C)on1)C(C(=O)NC(C)(C)C)c1cccnc1 (centres undefined)	7.86	16.1	0.98	0.91	28.7	–	–	–
CCC(=O)Nc1cccc(OC2CC(=O)N2)c1 (centres undefined)	-4.99	-6.23	1.01	1.01	–	0	–	–
CC(=O)Nc1ccc(NCC(=O)Nc2cnccc2C)cc1	-2.21	-24.3	0.96	0.9	–	0	–	–
O=C(CC(=O)N1CCOCC1)Nc1ccccc1	–	-26.9	1	1.01	0	0	–	–
N#Cc1cc(Cl)cc(NC(=O)Nc2cccnc2)c1	23	43.9	0.99	0.88	6.78	36.5	–	–
O=S(=O)(Cc1ccccc1)Nc1cnccc1N1CCCC1	1.48	1.38	0.99	0.98	–	0	–	–
O=C(Nc1cccnc1)c1cc(Cl)ccc1-c1ccccc1	47.4	60.4	1	0.97	2.13	–	–	–
O=C(Cc1cccc(Cl)c1)Nn1cnc2ccccc2c1=O	70.9	87	1	1	–	0	–	–
